In US6723702B2, “Use of relaxin treat diseases related to vasoconstriction” (RAS Medical, Inc., priority 2000, dated 2004):

Tests used:
female rats = assay: rhRLX for 5 days in female rats with infusion of ETB receptor antagonist RES-701-1 or its vehicle; assay type: in vivo, rat
Method: After surgical recovery, an osmotic minipump (model 2ML1, Alza Co., Palo Alto Calif.) containing either recombinant human relaxin (rhRLX; n=9 rats) or vehicle (n=8) was implanted subcutaneously on the back using light ether anesthesia. The infusion rate of rhRLX was 4 μg/hour. Experiments were conducted on day 5 of rhRLX or vehicle administration. MAP and renal function were measured as described above.
The technique of urine collection was again reliable. After reaching steady-state, the excretion rates of IN and PAH at baseline were 99±3 and 100±2% of their respective infusions for the rats administered rhRLX, and 100±2 and 99±2% for those given vehicle. Following the determination of baseline MAP and renal function, an infusion of RES-701-1, a selective endothelin type B (ETB) receptor antagonist (Conrad et al. (1999) Am. J. Physiol. 272:F767-F776; and Tanaka et al. (1994) Mol. Pharmacol. 45:724-730), was started at a rate of 10 μg/minute (flow rate 12 μl/minute) through the venous catheter. […] At the end of the experiment, 1.0 ml of blood was collected for determination of serum rhRLX.
In an additional three rats each administered rhRLX or vehicle, identical experimental procedures as described above were applied, except that the vehicle for RES-701-1 was infused instead of RES-701-1.

[1] = test system: bFGF protein expression in human cardiac cells; assay: Immunocytochemistry of human cardiac cell cultures; assay type: cell-based; conditions: 10 and 100 ng/ml for 24 hours
Method: Human cardiac cell cultures untreated or treated for 24 hr with 1, 10, and 100 ng/ml of relaxin were analyzed for VEGF and bFGF protein expression by immunocytochemistry. Human cardiac cells were seeded in two chamber slides at 150,000 cells per chamber 24 hours prior to treatment with relaxin. Cells were incubated without or with 10 or 100 ng/ml relaxin for 24 hours. Cells were washed with PBS and fixed with sequential treatment of 4% paraformaldehyde for 10 minutes, ice-cold acetone for 1 minute and ice-cold methanol for 1 minute before air-drying. Slides were then processed as outlined for rat heart sections with the additional use of monoclonal antibodies against vimentin or desmin (Santa Cruz Biotechnology). Cells being analyzed for bFGF expression were stained using the protocol outlined by Vector Laboratories “Vectastain Elite ABC” kit (Vector Labs.), the only deviation from the standard protocol being a 1 hour instead of a 30 minutes primary antibody incubation step. Untreated cells stained diffusely and uniformly for bFGF. Nearly 100% of all cells stained more intensely for bFGF expression following treatment with 10 and 100 ng/ml of relaxin for 24 hours.

human cardiac cells = assay: Cellular proliferation by 3H-thymidine incorporation in cardiac cells; assay type: cell-based
Method: To determine if the effects of relaxin observed in the rat were also seen in human cells, total RNA from cardiac cells was extracted following treatment of cells with 1, 10, and 100 ng/ml relaxin for 24 hours. Human cardiac cells were cultured for 24 hours either without or with relaxin (1-100 ng/ml). Untreated cells were incubated for the same 24 hour period under hypoxic (2% O2) conditions. Using 150 ng of total RNA for human VEGF and bFGF transcripts and 10 ng of total RNA for GAPDH transcripts, primer/probe sets were used to generate RT-PCR products for human VEGF 165aa and 121aa isoforns and human bFGF. Data were analyzed using Sequence Detector v1.6.3 software (Applied Biosystems/PE). VEGF and bFGF expression levels are graphed relative to GAPDH transcript levels. Data are shown as means±SEM, where n=3 per treatment group; *p<0.05; Student-Newman-Keuls test. […] Absolute baseline levels of bFGF mRNA transcripts expressed by these cells were approximately 2-fold greater than those of either the VEGF121 or the VEGF165 isoforms. Total RNA from cells incubated under hypoxic conditions was analyzed as a positive control for the stimulation of VEGF isoforms. […] Relaxin had no effect on cellular proliferation, as assessed by ^3H-thymidine incorporation, on cellular morphology, or on desmin or vimentin staining patterns.

[2] = test system: rat aortic endothelial cells; assay: 3H-thymidine uptake, rat endothelial cells; assay type: cell-based; conditions: serum-free medium
Method: Endothelial cells were derived from explant cultures of human neonatal foreskin and rat aorta. Primary human endothelial cells from umbilical vein, aorta, and lung were purchased from Clonetics-BioWhittaker Corporation (San Diego, Calif.) and cultured according to vendor instructions. ^3H-thymidine uptake was performed, as previously described, in serum-free medium. Unemori et al. (1994) Exp. Cell Res. 21:166-171.
Relaxin was then assayed for the ability to induce proliferation of endothelial cells directly. Relaxin's potential mitogenic effect was tested on human primary umbilical vein, aortic, foreskin, and pulmonary endothelial cells, as well as rat aortic endothelial cells. […] Alterations in other aspects of endothelial cell phenotype that are believed to correlate with angiogenesis were also tested. Relaxin had no effect on collagen expression, judged by SDS-PAGE of ^3H-proline-labeled cellular proteins; or metalloproteinase or tissue inhibitor of metalloproteinase-1 secretion, assessed by gelatin zymography. […] Therefore, relaxin had no apparent effect directly on endothelial cells.

endothelial cells = assay: Binding of 32P-labelled relaxin to endothelial cells
[3] = test system: Female Sprague-Dawley rats; assay: Kidney function in cyclosporine-treated rats; assay type: in vivo, rat; conditions: for GFR / Urine Flow: Normal = 1.0
Method: Relaxin (rhRlx) was administrated via subcutaneous pumps at dose of either 0.1 mg/kg/day or 0.5 mg/kg/day for 10 days (day 0-10). On day B2 (baseline), Day 4, and Day 9, all rats were put into metabolic cages. The 24-hour urine volume was measured to calculate urine flow rate using the following formula: […]
Blood and urine were collected for creatinine measurement to calculate the GFR using the following formula: […]

[4] = rhRLX day 5, V, vehicle for RES-701-1
[5] = CsA and rhRlx at either 0.1 mg/kg or 0.5 mg/kg
[6] = Normal rats + 0.5 mg/kg, Day 10

## rhRLX: recombinant human relaxin, identical in amino acid sequence to the product of the human H2 gene; A chain of 24, B chain of 29 amino acids
Female rats; rhRLX day 5, B, baseline
  ERPF: 11220
  ERVR: 6.67
  GFR: 3082
  MAP: 112 ± 7
Female rats; [4]
  ERPF: 10464
  ERVR: 6.97
  GFR: 3112
  MAP: 115 ± 8
Female rats; rhRLX for 5 days (FIG. 4)
  ERPF at baseline compared to vehicle infusion: significantly increased
  ERVR reduction at baseline compared to vehicle infusion: 20-30%
  GFR at baseline compared to vehicle infusion: significantly increased
  MAP at baseline compared to vehicle infusion: not significantly affected
[1]
  cells stained more intensely for bFGF expression: ~100%
Human cardiac cells
  cellular proliferation, 3H-thymidine incorporation: no effect
[2]
  3H-thymidine uptake: did not alter
Endothelial cells
  binding of 32P-labelled relaxin to endothelial cells: could not be detected
[3]; CsA + 0.1 mg/kg, Day 5
  GFR: 0.99 ± 0.15
  Urine Flow: 1.21 ± 0.36
[3]; CsA + 0.1 mg/kg, Day 10
  GFR: 1.49 ± 0.18
  Urine Flow: 1.59 ± 0.41
[3]; CsA + 0.5 mg/kg, Day 5
  GFR: 1.231 ± 0.15
  Urine Flow: 1.27 ± 0.16
[3]; CsA + 0.5 mg/kg, Day 10
  GFR: 1.39 ± 0.13
  Urine Flow: 1.067 ± 0.11
[3]; [5]
  creatinine clearance compared to animals treated with CsA alone: significantly improved
  urine flow rate compared to animals treated with CsA alone: significantly improved
[3]; Normal rats + 0.5 mg/kg, Day 5
  GFR: 1.47 ± 0.08
  Urine Flow: 1.68 ± 0.02
[3]; [6]
  GFR: 1.50 ± 0.09
  Urine Flow: 1.42 ± 0.01
[3]; normal rats, 0.5 mg/kg, day 5
  creatinine clearance compared to the baseline: 147%
  urine flow rate compared to the baseline: 168%
